Measurements from patent US9096589B2, “Heteroaromatic phenylimidazole derivatives as PDE10A enzyme inhibitors” (H. Lundbeck A/S, priority 2009, dated 2015).

Each compound was assayed against PDE10A (Homo sapiens (Human), UniProt Q9Y233) (assay: PDE10A inhibition assay).
Type: biochemical
Description: Active PDE10A enzyme is prepared in a number of ways for use in PDE assays (Loughney, K. et al. Gene 1999, 234, 109-117; Fujishige, K. et al. Eur J. Biochem. 1999, 266, 1118-1127 and Soderling, S. et al. Proc. Natl. Acad. Sci. 1999, 96, 7071-7076). PDE10A can be expressed as full-length proteins or as truncated proteins, as long as they express the catalytic domain. PDE10A can be prepared in different cell types, for example insect cells or E. coli. An example of a method to obtain catalytically active PDE10A is as follows: The catalytic domain of human PDE10A (amino acids 440-779 from the sequence with accession number NP 006652) is amplified from total human brain total RNA by standard RT-PCR and is cloned into the BamH1 and Xho1 sites of the pET28a vector (Novagen). Expression in coli is performed according to standard protocols. Briefly, the expression plasmids are transformed into the BL21(DE3) E. coli strain, and 50 mL cultures inoculated with the cells allowed to grow to an OD600 of 0.4-0.6 before protein expression is induced with 0.5 mM IPTG. Following induction, the cells are incubated overnight at room temperature, after which the cells are collected by centrifugation. Cells expressing PDE10A are resuspended in 12 mL (50 mM TRIS-HCl-pH8.0, 1 mM MgCl2 and protease inhibitors). The cells are lysed by sonication, and after all cells are lysed, TritonX100 is added according to Novagen protocols.
A PDE10A assay may for example, be performed as follows: The assay is performed in 60 uL samples containing a fixed amount of the relevant PDE enzyme (sufficient to convert 20-25% of the cyclic nucleotide substrate); a buffer (50 mM HEPES7.6; 10 mM MgCl2; 0.02% Tween20), 0.1 mg/ml BSA, 225 pCi of ^3H-labelled cyclic nucleotide substrate, tritium labeled cAMP to a final concentration of 5 nM and varying amounts of inhibitors. Reactions are initiated by addition of the cyclic nucleotide substrate, and reactions are allowed to proceed for one hr at room temperature before being terminated through mixing with 15 uL 8 mg/mL yttrium silicate SPA beads (Amersham). The beads are allowed to settle for one hr in the dark before the plates are counted in a Wallac 1450 Microbeta counter. The measured signal can be converted to activity relative to an uninhibited control (100%) and IC50 values can be calculated using the Xlfit extension to EXCEL.

PDE10A, sequence (Q9Y233 716-1055): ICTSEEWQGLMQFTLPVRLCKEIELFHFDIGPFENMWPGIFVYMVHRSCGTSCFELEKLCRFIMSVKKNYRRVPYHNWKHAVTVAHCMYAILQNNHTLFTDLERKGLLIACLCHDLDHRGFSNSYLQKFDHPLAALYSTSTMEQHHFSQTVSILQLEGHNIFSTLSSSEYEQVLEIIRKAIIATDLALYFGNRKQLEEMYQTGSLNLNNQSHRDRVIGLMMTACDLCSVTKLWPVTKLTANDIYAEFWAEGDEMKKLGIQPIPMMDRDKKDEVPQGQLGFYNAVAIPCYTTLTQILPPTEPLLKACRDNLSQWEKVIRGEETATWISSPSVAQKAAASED

SMILES	IC50
COc1cccn2nc(CCc3nc(-c4cncs4)cn3C)nc12 [8-Methoxy-2-[2-(1-methyl-4-thiazol-5-yl-1H-imidazol-2-yl)-ethyl]-[1,2,4]triazolo[1,5-a]pyridine]	36 nM
COc1cccn2nc(CCc3nc(-c4cccs4)cn3C)nc12 [8-Methoxy-2-[2-(1-methyl-4-thiophen-2-yl-1H-imidazol-2-yl)-ethyl]-[1,2,4]triazolo[1,5-a]pyridine]	4.5 nM
COc1cccn2nc(CCc3nc(-c4ccsc4)cn3C)nc12 [8-Methoxy-2-[2-(1-methyl-4-thiophen-3-yl-1H-imidazol-2-yl)-ethyl]-[1,2,4]triazolo[1,5-a]pyridine]	16 nM
COc1cccn2nc(CCc3nc(-c4cccnc4)c[nH]3)nc12 [8-Methoxy-2-[2-(4-pyridin-3-yl-1H-imidazol-2-yl)-ethyl]-[1,2,4]triazolo[1,5-a]pyridine]	270 nM
COc1cccn2nc(CCc3nc(-c4cccs4)c[nH]3)nc12 [8-Methoxy-2-[2-(4-thiophen-2-yl-1H-imidazol-2-yl)-ethyl]-[1,2,4]triazolo[1,5-a]pyridine]	28 nM
COc1cccn2nc(/C=C/c3nc(-c4cccs4)cn3C)nc12 [8-Methoxy-2-[(E)-2-(1-methyl-4-thiophen-2-yl-1H-imidazol-2-yl)-vinyl]-[1,2,4]triazolo[1,5-a]pyridine]	62 nM
COc1cccn2nc(CCc3nc(-c4cscc4C)cn3C)nc12 [8-Methoxy-2-{2-[1-methyl-4-(4-methyl-thiophen-3-yl)-1H-imidazol-2-yl]-ethyl}-[1,2,4]triazolo[1,5-a]pyridine]	37 nM
COc1cccn2nc(CCc3nc(-c4ccc(C)o4)cn3C)nc12 [8-Methoxy-2-{2-[1-methyl-4-(5-methyl-furan-2-yl)-1H-imidazol-2-yl]-ethyl}-[1,2,4]triazolo[1,5-a]pyridine]	56 nM
COc1cccn2nc(/C=C/c3nc(-c4cscc4C)cn3C)nc12 [8-Methoxy-2-{(E)-2-[1-methyl-4-(4-methyl-thiophen-3-yl)-1H-imidazol-2-yl]-vinyl}-[1,2,4]triazolo[1,5-a]pyridine]	55 nM
COc1ccc(C)n2nc(CCc3nc(-c4cccnc4)cn3C)nc12 [8-Methoxy-5-methyl-2-[2-(1-methyl-4-pyridin-3-yl-1H-imidazol-2-yl)-ethyl]-[1,2,4]triazolo[1,5-a]pyridine]	24 nM
COc1ccc(C)n2nc(CCc3nc(-c4ccsc4)cn3C)nc12 [8-Methoxy-5-methyl-2-[2-(1-methyl-4-thiophen-3-yl-1H-imidazol-2-yl)-ethyl]-[1,2,4]triazolo[1,5-a]pyridine]	1.7 nM
C#CCn1cc(-c2cccs2)nc1CCc1nc2c(OC)ccc(C)n2n1 [8-Methoxy-5-methyl-2-[2-(1-prop-2-ynyl-4-thiophen-2-yl-1H-imidazol-2-yl)-ethyl]-[1,2,4]triazolo[1,5-a]pyridine]	4.1 nM
COc1ccc(C)n2nc(CCc3nc(-c4cccs4)c[nH]3)nc12 [8-Methoxy-5-methyl-2-[2-(4-thiophen-2-yl-1H-imidazol-2-yl)-ethyl]-[1,2,4]triazolo[1,5-a]pyridine]	1.1 nM
COc1ccc(C)n2nc(/C=C/c3nc(-c4cccs4)cn3C)nc12 [8-Methoxy-5-methyl-2-[(E)-2-(1-methyl-4-thiophen-2-yl-1H-imidazol-2-yl)-vinyl]-[1,2,4]triazolo[1,5-a]pyridine]	2.7 nM
COc1ccc(C)n2nc(CCc3nc(-c4ccc(C)o4)cn3C)nc12 [8-Methoxy-5-methyl-2-{2-[1-methyl-4-(5-methyl-furan-2-yl)-1H-imidazol-2-yl]-ethyl}-[1,2,4]triazolo[1,5-a]pyridine]	20 nM
Cc1cccn2nc(CCc3nc(-c4cccs4)cn3C)nc12 [8-Methyl-2-[2-(1-methyl-4-thiophen-2-yl-1H-imidazol-2-yl)-ethyl]-[1,2,4]triazolo[1,5-a]pyridine]	15 nM
Cc1cccn2nc(CCc3nc(-c4cccnc4)c[nH]3)nc12 [8-Methyl-2-[2-(4-pyridin-3-yl-1H-imidazol-2-yl)-ethyl]-[1,2,4]triazolo[1,5-a]pyridine]	64 nM
Cc1cccn2nc(CCc3nc(-c4cccs4)c[nH]3)nc12 [8-Methyl-2-[2-(4-thiophen-2-yl-1H-imidazol-2-yl)-ethyl]-[1,2,4]triazolo[1,5-a]pyridine]	0.99 nM
Cc1cccc2nc(CCc3nc(-c4cccs4)cn3C[C@@H](O)CNCCO)nn12 [(S)-1-(2-Hydroxy-ethylamino)-3-{2-[2-(5-methyl-[1,2,4]triazolo[1,5-a]pyridin-2-yl)-ethyl]-4-thiophen-2-yl-imidazol-1-yl}-propan-2-ol]	30 nM
Cc1cccc2nc(CCc3nc(-c4cccs4)cn3C[C@@H](O)CN(C)C(C)C)nn12 [(S)-1-(Isopropyl-methyl-amino)-3-{2-[2-(5-methyl-[1,2,4]triazolo[1,5-a]pyridin-2-yl)-ethyl]-4-thiophen-2-yl-imidazol-1-yl}-propan-2-ol]	97 nM
CCN(CC)C[C@H](O)Cn1cc(-c2cccs2)nc1CCc1nc2cccc(C)n2n1 [(S)-1-Diethylamino-3-{2-[2-(5-methyl-[1,2,4]triazolo[1,5-a]pyridin-2-yl)-ethyl]-4-thiophen-2-yl-imidazol-1-yl}-propan-2-ol]	77 nM
Cc1cccc2nc(CCc3nc(-c4cccs4)cn3C[C@@H](O)CNC(C)C)nn12 [(S)-1-Isopropylamino-3-{2-[2-(5-methyl-[1,2,4]triazolo[1,5-a]pyridin-2-yl)-ethyl]-4-thiophen-2-yl-imidazol-1-yl}-propan-2-ol]	46 nM

More lines, in order of falling IC50, values ahead:

IC50	SMILES
120 nM	COc1cccn2nc(CCc3nc(-c4ccc(C)o4)c[nH]3)nc12 [8-Methoxy-2-{2-[4-(5-methyl-furan-2-yl)-1H-imidazol-2-yl]-ethyl}-[1,2,4]triazolo[1,5-a]pyridine]
85 nM	COc1cccn2nc(/C=C/c3nc(-c4cncs4)cn3C)nc12 [8-Methoxy-2-[(E)-2-(1-methyl-4-thiazol-5-yl-1H-imidazol-2-yl)-vinyl]-[1,2,4]triazolo[1,5-a]pyridine]
62 nM	COc1cccn2nc(CCc3nc(-c4cncs4)c[nH]3)nc12 [8-Methoxy-2-[2-(4-thiazol-5-yl-1H-imidazol-2-yl)-ethyl]-[1,2,4]triazolo[1,5-a]pyridine]
52 nM	COc1cccn2nc(/C=C/c3nc(-c4ccsc4)cn3C)nc12 [8-Methoxy-2-[(E)-2-(1-methyl-4-thiophen-3-yl-1H-imidazol-2-yl)-vinyl]-[1,2,4]triazolo[1,5-a]pyridine]
47 nM	Cc1cccc2nc(CCc3nc(-c4cccs4)cn3C[C@@H](O)CN(C)C)nn12 [(S)-1-Dimethylamino-3-{2-[2-(5-methyl-[1,2,4]triazolo[1,5-a]pyridin-2-yl)-ethyl]-4-thiophen-2-yl-imidazol-1-yl}-propan-2-ol]
36 nM	Cc1cccn2nc(CCc3nc(-c4cncs4)cn3C)nc12 [8-Methyl-2-[2-(1-methyl-4-thiazol-5-yl-1H-imidazol-2-yl)-ethyl]-[1,2,4]triazolo[1,5-a]pyridine]
9.2 nM	COc1ccc(C)n2nc(CCc3nc(-c4cncs4)cn3C)nc12 [8-Methoxy-5-methyl-2-[2-(1-methyl-4-thiazol-5-yl-1H-imidazol-2-yl)-ethyl]-[1,2,4]triazolo[1,5-a]pyridine]
3.1 nM	COc1ccc(C)n2nc(CCc3nc(-c4cscc4C)cn3C)nc12 [8-Methoxy-5-methyl-2-{2-[1-methyl-4-(4-methyl-thiophen-3-yl)-1H-imidazol-2-yl]-ethyl}-[1,2,4]triazolo[1,5-a]pyridine]
2.8 nM	Cc1cccc2nc(CCc3nc(-c4cccs4)cn3C[C@@H](O)CCl)nn12 [(R)-1-Chloro-3-{2-[2-(5-methyl-[1,2,4]triazolo[1,5-a]pyridin-2-yl)-ethyl]-4-thiophen-2-yl-imidazol-1-yl}-propan-2-ol]
1.5 nM	COc1ccc(C)n2nc(CCc3nc(-c4cccs4)cn3C)nc12 [8-Methoxy-5-methyl-2-[2-(1-methyl-4-thiophen-2-yl-1H-imidazol-2-yl)-ethyl]-[1,2,4]triazolo[1,5-a]pyridine]
1.2 nM	CCCn1cc(-c2cccs2)nc1CCc1nc2c(OC)ccc(C)n2n1 [8-Methoxy-5-methyl-2-[2-(1-propyl-4-thiophen-2-yl-1H-imidazol-2-yl)-ethyl]-[1,2,4]triazolo[1,5-a]pyridine]
0.33 nM	COc1ccc(C)n2nc(CCc3nc(-c4cccs4)cn3CCN3CCOCC3)nc12 [8-Methoxy-5-methyl-2-{2-[1-(2-morpholin-4-yl-ethyl)-4-thiophen-2-yl-1H-imidazol-2-yl]-ethyl}-[1,2,4]triazolo[1,5-a]pyridine]
